Results from patent US20160200698A1, “VORTIOXETINE SALT AND CRYSTAL THEREOF, THEIR PREPARATION METHOD, PHARMACEUTICAL COMPOSITIONS AND USAGE” (HANGZHOU PUSHAI PHARMACEUTICAL TECHNOLOGY CO., LTD, priority 2013, published 2016).
Where a name gives a salt, the structure may show the parent alone. One block for each compound: values may come before it.

Assays:
Format in all cases: physicochemical
[1] = Inventors' studies of the known crystalline forms of vortioxetine hydrobromide of WO2007/144005A1; details: for Stability under high-temperature conditions: hydrobromide
Source text: In studies, the inventors of the present invention found out that the multiple crystalline forms of vortioxetine hydrobromide disclosed in WO2007/144005A1 have the following disadvantages: […]

[2] = Hygroscopicity comparison by DVS isothermal sorption curve; details: 20%-80% RH range
Method: Dynamic vapor sorption (DVS) data were collected using TA Instruments Q5000 TGA. The instrument control software was Thermal Advantage, and the analytical software was Universal Analysis. Usually, 1-10 mg of the sample was placed in a platinum pan and the weight change of the sample during experiments was recorded. The relative humidity was usually programmed to change from 20% to 80% and then back to 20%, and an isothermal sorption curve could be generated. Depending on specific situations, different sorption and desorption procedures might be used.
Hygroscopicity comparison: DVS isothermal sorption curves were used, and weight changes within the 20%-80% RH range were measured.

[3] = Dissolution comparison of sustained-release tablets made by the method of example 141; details: water, 37° C., paddle 50 r/min
Method: The crystalline form of vortioxetine hemihydrobromide of the present invention and the β Form of vortioxetine hydrobromide prepared in preparation example 2 were tabletted by the method of example 141 and then subjected to dissolution comparison. Water was used as the dissolution medium. Parameter setting of the dissolution tester: The temperature was 37° C. The rotate speed of the stirring paddle was 50 r/min Take 3 ml of the dissolution medium out at 0.5, 1, 2, 6 and 12 hours respectively. Each time after sampling, 3 mL of water was added back to the dissolution medium to supplement the volume. The concentration of the dissolution medium at each time point was determined by HPLC.

[4] = Dissolution of tablets made by the method of example 105 (paddle method, water); details: 900 mL water, 37° C., paddle 50 r/min
Method: The crystalline form of vortioxetine hemihydrobromide of the present invention, the β Form of vortioxetine hydrobromide prepared in preparation example 2 and the β Form of vortioxetine hydrobromide containing 20% of the crystalline form of vortioxetine hemihydrobromide of the present invention were tabletted by the method in example 105 and then subjected to phase stability comparison. Dissolution was determined by reference to the dissolution conditions of Benorilate Tablets described in 2010 Chinese Pharmacopoeia. The paddle method was used with the paddle rotation speed at 50 r/min 900 mL of water was the dissolution medium. The temperature was 37° C. Take 3 mL of the dissolution medium for sampling at 2, 10, 20, 40 and 60 min respectively. Each time after sampling, 3 mL of water was added back to dissolution medium to supplement the volume. The concentration of the dissolution medium at each time point was measured by HPLC, and the dissolution profile was plotted.

[5] = Stability competition test (competitive slurry, XRPD analysis); details: for Stability Competition Test: crystalline form after competitive slurry (XRPD): ethanol or water, equal quantity of both forms slurried 7 days; for Stability competition test: crystalline form after slurry (summary statement): slurried in water or ethanol, temperature not stated
Method: Stability competition test: An equal quantity (250 mg) of the crystalline vortioxetine hemihydrobromide form of the present invention prepared in example 4 and the β Form of vortioxetine hydrobromide prepared in preparation example 2 were respectively added to 3 mL of ethanol or water to produce suspensions. No solvate was formed in ethanol or water. The suspensions were slurried for 7 days at room temperature or at 60° C., and then XRPD characterization analyses were performed.

[6] = Storage of the crystalline form in desiccators at controlled humidity; details: desiccators at 10% RH-90% RH, room temperature, 4 months
Source text: It is more temperature and humidity robust and is less likely to have content uniformity and stability issues during pharmaceutical production and storage, thus reduces the risk of inefficacy and safety issue caused thereby and improves dosing accuracy.

[7] = sampling time 0.5 hours, hemihydrobromide
[8] = sampling time 1 hour, hemihydrobromide
[9] = sampling time 2 hours, hemihydrobromide
[10] = sampling time 6 hours, hemihydrobromide
[11] = sampling time 12 hours, hemihydrobromide
[12] = sampling time 2 min, hemihydrobromide
[13] = sampling time 10 min, hemihydrobromide
[14] = sampling time 20 min, hemihydrobromide
[15] = sampling time 40 min, hemihydrobromide
[16] = listed as the known β Form of vortioxetine hydrobromide, hydrobromide
[17] = sampling time 0.5 hours, hydrobromide
[18] = sampling time 1 hour, hydrobromide
[19] = sampling time 2 hours, hydrobromide
[20] = sampling time 6 hours, hydrobromide
[21] = sampling time 12 hours, hydrobromide
[22] = sampling time 2 min, hydrobromide
[23] = sampling time 10 min, hydrobromide
[24] = sampling time 20 min, hydrobromide
[25] = sampling time 40 min, hydrobromide

SMILES: Cc1ccc(Sc2ccccc2N2CCNCC2)c(C)c1 [hydrate of vortioxetine hydrobromide, vortioxetine hydrobromide]
Stability under high-temperature conditions [1]: lost water

SMILES: Cc1ccc(Sc2ccccc2N2CCNCC2)c(C)c1 [vortioxetine hemihydrobromide]
Hygroscopicity Comparison (weight change) ([2]; listed as Example 4, hemihydrobromide): 0.28% | Hygroscopicity Comparison (weight change) ([2]; listed as the vortioxetine hemihydrobromide crystalline form of the present invention, hemihydrobromide): 0.28% | Concentration [3, 7]: 2250 ng/mL | Cumulative dissolution [3, 7]: 8.1% | Concentration [3, 8]: 3980 ng/mL | Cumulative dissolution [3, 8]: 14.3% | Concentration [3, 9]: 7650 ng/mL | Cumulative dissolution [3, 9]: 27.4% | Concentration [3, 10]: 12640 ng/mL | Cumulative dissolution [3, 10]: 58.5% | Concentration [3, 11]: 26330 ng/mL | Cumulative dissolution [3, 11]: 94.5% | Concentration [4, 12]: 2270 ng/mL | Cumulative dissolution [4, 12]: 8.2% | Concentration [4, 13]: 4320 ng/mL | Cumulative dissolution [4, 13]: 15.5% | Concentration [4, 14]: 7720 ng/mL | Cumulative dissolution [4, 14]: 27.7% | Concentration [4, 15]: 11330 ng/mL | Cumulative dissolution [4, 15]: 52.4% | Cumulative dissolution ([4]; sampling time 60 min): 100.0% | Concentration ([4]; sampling time 60 min, hemihydrobromide): 27860 ng/mL | Stability Competition Test: crystalline form after competitive slurry (XRPD) ([5]; 60° C., listed as the vortioxetine hemihydrobromide crystalline form of the present invention, hemihydrobromide): present invention kept unchanged” | Stability Competition Test: crystalline form after competitive slurry (XRPD) ([5]; room temperature, listed as the vortioxetine hemihydrobromide crystalline form of the present invention, hemihydrobromide): present invention kept unchanged” | Stability competition test: crystalline form after slurry (summary statement) ([5]; hemihydrobromide): keeping its crystalline form unchanged

SMILES: Cc1ccc(Sc2ccccc2N2CCNCC2)c(C)c1 [α Form of vortioxetine hydrobromide, vortioxetine hydrobromide]
Crystalline form stability at room temperature ([1]; room temperature): transformed to the β Form of vortioxetine hydrobromide

Now from value to compound, other results behind:

Stability under high-humidity conditions ([1]; high-humidity conditions): transformed to hydrate | Stability under high-temperature conditions [1]: lost ethyl acetate
SMILES: Cc1ccc(Sc2ccccc2N2CCNCC2)c(C)c1 [ethyl acetate solvate of vortioxetine hydrobromide]

Hygroscopicity Comparison (weight change) [2, 16]: 0.60% | Concentration [3, 17]: 16370 ng/mL | Cumulative dissolution [3, 17]: 50.0% | Concentration [3, 18]: 29710 ng/mL | Cumulative dissolution [3, 18]: 90.9% | Concentration [3, 19]: 30810 ng/mL | Cumulative dissolution [3, 19]: 94.2% | Concentration [3, 20]: 31560 ng/mL | Cumulative dissolution [3, 20]: 96.5% | Concentration [3, 21]: 33420 ng/mL | Cumulative dissolution [3, 21]: 100.0% | Concentration [4, 22]: 13120 ng/mL | Cumulative dissolution [4, 22]: 40.1% | Concentration [4, 23]: 28050 ng/mL | Cumulative dissolution [4, 23]: 85.8% | Concentration [4, 24]: 30020 ng/mL | Cumulative dissolution [4, 24]: 91.8% | Concentration [4, 25]: 31660 ng/mL | Cumulative dissolution [4, 25]: 96.8% | Concentration ([4]; sampling time 60 min, hydrobromide): 33420 ng/mL
SMILES: Cc1ccc(Sc2ccccc2N2CCNCC2)c(C)c1 [the β Form of vortioxetine hydrobromide, 1-[2-(2,4-dimethylphenylsulfanyl)phenyl]piperazine hydrobromide]
Stability Competition Test: crystalline form after competitive slurry (XRPD) ([5]; 60° C., listed as the known β Form of vortioxetine hydrobromide, hydrobromide): completely transformed into the vortioxetine hemihydrobromide crystalline form of the present invention | Stability Competition Test: crystalline form after competitive slurry (XRPD) ([5]; room temperature, listed as the known β Form of vortioxetine hydrobromide, hydrobromide): completely transformed into the vortioxetine hemihydrobromide crystalline form of the present invention | Stability competition test: crystalline form after slurry (summary statement) ([5]; hydrobromide): failed to maintain its original crystalline form and transformed to the vortioxetine hemihydrobromide crystalline form of the present invention | Stability competition test: crystalline form after slurry (summary statement) [5, 16]: completely transformed to the crystalline vortioxetine hemihydrobromide of the present invention | Stability competition test: crystalline form after slurry (summary statement) ([5]; listed as β Form of vortioxetine hydrobromide, hydrobromide): failed to maintain its original crystalline form

Stability (general finding) [1]: very unstable | Hygroscopicity ([1]; low-humidity conditions): 2.0%
SMILES: Cc1ccc(Sc2ccccc2N2CCNCC2)c(C)c1 [γ Form of vortioxetine hydrobromide, vortioxetine hydrobromide]

Crystalline form after storage [6]: remained unchanged
SMILES: Cc1ccc(Sc2ccccc2N2CCNCC2)c(C)c1 [vortioxetine hydrobromide isopropanol solvate]
